Data taken from paper PMC3025356, “Mechanism of the Ca^2+-Dependent Interaction between S100A4 and Tail Fragments of Nonmuscle Myosin Heavy Chain IIA” (Journal of Molecular Biology, 2011).
Like-named read-outs stand apart in the source and are kept apart here.

Tests used:
[1] = 37 °C, 20 mM KCl, cited from earlier work
Description: At 10 °C, the first site became associated with negative enthalpy but retained a ...

[2] = cited from earlier work
Description: S100A4 contains two tyrosine residues (one in each of the EF-hand domains), and mutating each in turn to phenylalanine enabled us to identify the source of the signal change. […] Ca^2+ binds to the S100A4 dimer with an affinity of around 2–6 μM. […] Regarding the assignment of the sites to EF1 or EF2, the E33Q mutant appears more similar to wild-type S100A4 than the D63N mutant and has an intact EF2 site, as determined by tyrosine and Quin-2 fluorescence (Fig. 3a; ...

[3] = Stopped-flow tyrosine fluorescence, Ca^2+ dissociation from S100A4 constructs; format: binding
Description: Stopped-flow measurements were carried out using an SX18-MV apparatus (Applied Photophysics Ltd., Leatherhead, UK) with a dead time of 1.5 ms.[40] Records were generally captured on a logarithmic time base. Absorption (turbidity) measurements were usually recorded using a 10-mm pathlength, while fluorescence was recorded with a 2-mm pathlength for excitation and emission. The stated concentrations of components refer to the reaction chamber after mixing, unless otherwise indicated. Tyrosine fluorescence was excited at 280 nm, and the emission was collected through a UG11 bandpass filter plus a 305-nm longpass filter.[18] Fluorescein fluorescence was excited at 480 nm, and the emission was detected through a 515-nm longpass filter. Quin-2 fluorescence was measured by excitation at 336 nm, and emission was collected with a 455-nm longpass filter. For simultaneous recording of light scatter, a second channel was monitored through a UG11 filter. Rate constants were obtained by fitting to single-exponential or double-exponential functions using Kaleidagraph (Synergy Software) or Applied Photophysics Pro-Data software. Modeling of kinetic schemes was performed using Berkeley Madonna software.
Dissociation of Ca2+ from wild type S100A4 (black), Y19F mutant (blue) and Y75F mutant (red) monitored by tyrosine fluorescence. 13 M of each S100A4 construct plus 100 µM Ca2+ was mixed with 200 µM EGTA (reaction chamber concentrations) and the tyrosine fluorescence monitored. The buffer was 20 mM NaCl, 10 mM HEPES, 2 mM DTT at pH 7.5 and 20 °C. Fits to a single exponential function yielded rate constants of 20 s-1, 113 s-1 and 45 s-1 for wild-type, Y19F mutant and Y75F mutant respectively. (d) Dissociation of Ca2+ from wild type S100A4 (black), E33Q mutant (blue) and D63N mutant (red) monitored by tyrosine fluorescence. 13 M of each S100A4 construct plus 15 M Ca2+ was mixed with 200 M EGTA (reaction chamber concentrations) and the tyrosine fluorescence monitored. Fits to a single exponential function yielded rate constants of 22 s-1 and 49 s-1 for wild-type and E33Q construct respectively, while that […]
The records for the mutants were vertically offset for clarity in both […]

[4] = system: M200 filaments; format: biochemical, human
Description: Fig. 9 Dissociation of M200 filaments by S100A4. (a) Initially, M200 was added (i) from a concentrated stock in 0.5 M NaCl to give a final concentration of 5 μM M200 (with respect to the polypeptide chain) in 100 mM NaCl, 10 mM Hepes, and 0.1 mM Ca^2+ at pH 7.5 and 20 °C. A biphasic rise in turbidity was recorded for 200 s (continuous line). Then 10 μM S100A4 (with respect to monomer concentration) was added (ii), followed by 0.2 mM EGTA (iii) and 1 mM Ca^2+ (iv). […] (b) M200 was diluted (i) into 100 mM NaCl to form filaments as in (a), then 5 μM S100A4 was added (ii), causing a 54% drop in turbidity. A further 5 μM S100A4 (iii) caused turbidity to fall to almost zero. (c) Stopped-flow records monitoring the dissociation of 5 μM M200 filaments on jumping [NaCl] from 100 mM to 120 mM NaCl. Other components of the buffer were 20 mM Hepes, 1 mM Mg^2+, and 100 μM Ca^2+ at pH 7.5 and 20 °C. […] In the presence of 20 μM S100A4 (lower trace), the turbidity decreased by 87% with a rate constant of 0.2 s^− 1.
Absorption spectra were recorded using a Cary 50 spectrophotometer (Varian Ltd., Walton on Thames, UK). Protein concentrations were calculated from their absorbance at 280 nm, using molar coefficients of 2980 M^− 1 cm^− 1 (M200 and S100A4) and 1490 M^− 1 cm^− 1 (M111), based on their tyrosine content (two residues per chain and one residue per chain, respectively). Myosin fragments were measured in 0.5 M NaCl buffer, and care was taken to correct for the small contribution from turbidity. Protein concentrations are stated in terms of their monomeric polypeptide chain concentration. Under the conditions used for kinetic analysis, S100A4 is predominantly a dimer,[21,25] and M200 and M111 form stable coiled coils; therefore, the molar protein concentrations are half those given in all three cases. Fluorescence emission spectra were also checked, and those preparations containing a detectable shoulder at 340 nm due to contaminating tryptophan-containing proteins were subjected to further purification. F-M16^N concentrations were based on fluorescein absorbance (ɛ490 = 78,000 M^− 1 cm^− 1). […] Quin-2 concentrations were calculated from ɛ354 = 5000 M^− 1 cm^− 1 in the absence of Ca^2+.[39] Turbidity assays used to monitor M200 filament formation and solubilisation with manual mixing were carried out using a 10-mm pathlength and a 0.1-ml microcuvette (105.250-QS; Hellma, Southend on Sea, UK) at a wavelength of 300 nm. For determination of the free Ca^2+ concentration, Fura-2 fluorescence excitation spectra were measured in the same cuvette using the 2-mm path for excitation to minimise inner filter effects.

S100A4: recombinant S100A4 expressed in E. coli BL21(DE3)
Kd ([1]; read-out: Kd, site with negative enthalpy): 54 µM | Kd ([1]; read-out: Kd, site with positive enthalpy): 3.3 µM | Ca^2+ bound per S100A4 monomer ([2]; amplitude of tyrosine fluorescence change on addition of Ca^2+): 1.7 ± 0.18 Ca^2+ bound per S100A4 monomer | Ca^2+ dissociation rate constant (tyrosine) [2]: 20 s^− 1 | Ca^2+ dissociation rate constant (tyrosine) ([3]; 13 μM S100A4 + 15 μM Ca^2+ mixed with 200 μM EGTA): 22 s^− 1 | Ca^2+ dissociation rate constant (tyrosine) ([3]; 13 μM S100A4 + 100 μM Ca^2+ mixed with 200 μM EGTA, 20 mM NaCl, 10 mM Hepes, 2 mM DTT, pH 7.5, 20 °C): 20 s^− 1 | S100A4 monomer excess per M200 chain required for full solubilisation [4]: 2 -fold molar excess | drop in turbidity ([4]; 5 μM S100A4, M200 filaments, 100 mM NaCl): 54% | effect of excess EGTA on solubilisation ([4]; excess EGTA): reversed the process, allowing M200 filaments to reform | turbidity after further S100A4 ([4]; further 5 μM S100A4 (10 μM total)): almost zero | S100A4 monomer required to solubilise 1 mol of M200 ([4]; per M200 polypeptide chain): 2 mol of S100A4 monomer
